Test results: ChEMBL document CHEMBL3826977, “Discovery and Structural Characterization of G-quadruplex DNA in Human Acetyl-CoA Carboxylase Gene Promoters: Its Role in Transcriptional Regulation and as a Therapeutic Target for Human Disease” (J Med Chem, 2016)
The source made the active and inactive calls. The rule behind the calls is not given here.

Assays:
[1] = Binding affinity to human ACC1 promoter1 G-quadraduplex DNA
[2] = Binding affinity to human ACC1 promoter2 G-quadraduplex DNA
HeLa [3] = experiment: Binding affinity to human ACC1 promoter G-quadraduplex DNA transfected in human HeLa cells assessed as suppression of ACC1 gene expression after 24 hrs by qRT-PCR method; assay type: cell-based
HeLa [4] = experiment: Effect on GAPDH gene expression in human HeLa cells at 5 to 20 uM after 24 hrs by qRT-PCR method; assay type: ADME, cell-based
Homo sapiens [5] = species: Homo sapiens; experiment: Binding affinity to human ACC1 promoter2 G-quadraduplex DNA assessed as hyperchromic shift at 5 uM by UV-vis absorption spectroscopy
Homo sapiens [6] = species: Homo sapiens; experiment: Binding affinity to human ACC1 promoter2 G-quadraduplex DNA assessed as bathochromic red shift at 5 uM by UV-vis absorption spectroscopy
HeLa [7] = experiment: Binding affinity to human wild type ACC1 promoter2 G-quadraduplex DNA transfected in human HeLa cells assessed as suppression of ACC1 gene expression at 0.1 to 25 uM after 24 hrs by dual luciferase reporter assay relative to control; assay type: cell-based
HeLa [8] = experiment: Binding affinity to human wild type ACC1 promoter2 G-quadraduplex DNA transfected in human HeLa cells assessed as suppression of ACC1 gene expression after 24 hrs by dual luciferase reporter assay; assay type: cell-based
Homo sapiens [9] = species: Homo sapiens; experiment: Binding affinity to human ACC1 promoter1 G-quadraduplex DNA assessed as inhibition of Taq-polymerase catalyzed primer extension preincubated for 1 hr followed by addition of Taq-polymerase measured after 30 mins by Taq-polymerase stop assay
Homo sapiens [10] = species: Homo sapiens; experiment: Binding affinity to human ACC1 promoter1 G-quadraduplex DNA at 5 uM by UV-vis absorption spectroscopy
Homo sapiens [11] = species: Homo sapiens; experiment: Binding affinity to human ACC1 promoter2 G-quadraduplex DNA mutant assessed as inhibition of Taq-polymerase catalyzed primer extension preincubated for 1 hr followed by addition of Taq-polymerase measured after 30 mins in presence of KCl by Taq-polymerase stop assay
Homo sapiens [12] = species: Homo sapiens; experiment: Binding affinity to human ACC1 promoter1 G-quadraduplex DNA assessed as decrease in fluorescence emission intensity by fluorescence emission spectroscopy
Homo sapiens [13] = species: Homo sapiens; experiment: Binding affinity to human ACC1 promoter2 G-quadraduplex DNA assessed as decrease in fluorescence emission intensity by fluorescence emission spectroscopy
Homo sapiens [14] = species: Homo sapiens; experiment: Binding affinity to human ACC1 promoter2 G-quadraduplex DNA assessed as apparent isosbestic point at 5 uM by UV-vis absorption spectroscopy
Homo sapiens [15] = species: Homo sapiens; experiment: Binding affinity to human ACC1 promoter2 G-quadraduplex DNA assessed as inhibition of Taq-polymerase catalyzed primer extension preincubated for 1 hr followed by addition of Taq-polymerase measured after 30 mins in presence of KCl by Taq-polymerase stop assay
HeLa [16] = experiment: Binding affinity to human wild type ACC1 promoter1 G-quadraduplex DNA transfected in human HeLa cells assessed as suppression of ACC1 gene expression at 0.1 to 25 uM after 24 hrs by dual luciferase reporter assay relative to control; assay type: cell-based
Homo sapiens [17] = species: Homo sapiens; experiment: Binding affinity to human ACC1 promoter1 G-quadraduplex DNA mutant assessed as inhibition of Taq-polymerase catalyzed primer extension preincubated for 1 hr followed by addition of Taq-polymerase measured after 30 mins by Taq-polymerase stop assay
HeLa [18] = experiment: Binding affinity to human wild type ACC1 promoter1 G-quadraduplex DNA transfected in human HeLa cells assessed as suppression of ACC1 gene expression after 24 hrs by dual luciferase reporter assay; assay type: cell-based

SMILES: C[n+]1ccc(-c2c3nc(c(-c4cc[n+](C)cc4)c4ccc([nH]4)c(-c4cc[n+](C)cc4)c4nc(c(-c5cc[n+](C)cc5)c5ccc2[nH]5)C=C4)C=C3)cc1
- Kd [1]: 0.07 µM
- Kd [2]: 0.07 µM

SMILES: c1cc2c(cc1-c1nc3cc(N4CCOCC4)ccc3[nH]1)c1cc(-c3nc4cc(N5CCOCC5)ccc4[nH]3)ccc1n2CCCCN1CCOCC1
- inhibition (HeLa [3]): Dose-dependent effect
- Activity (HeLa [4]): Non-toxic

SMILES: C[n+]1ccc(-c2c3nc(c(-c4cc[n+](C)cc4)c4ccc([nH]4)c(-c4cc[n+](C)cc4)c4ccc([nH]4)c(-c4cc[n+](C)cc4)c4nc2C=C4)C=C3)cc1
- Activity (Homo sapiens [5]): Active
- Activity (Homo sapiens [6]): 18 nm
- inhibition (HeLa [7]): 84%
- inhibition (HeLa [8]): Dose-dependent effect
- inhibition (Homo sapiens [9]): Dose-dependent effect
- Activity (Homo sapiens [10]): Active
- inhibition (Homo sapiens [11]): Active
- Activity (Homo sapiens [12]): Active
- Activity (Homo sapiens [13]): Active
- Activity (Homo sapiens [14]): 432 nm
- inhibition (Homo sapiens [15]): Dose-dependent effect
- inhibition (HeLa [16]): 67%
- inhibition (Homo sapiens [17]): inactive
- inhibition (HeLa [18]): Dose-dependent effect
